# Test results from patent publication US12201723B2, “Combined pharmaceutical formulation comprising gemcitabine-containing liposome composition and immune checkpoint inhibitor” (FUJIFILM Corporation, priority 2018, dated 2025).
# Assays:
# EMT6 tumor cells [1] = assay: Drug efficacy test with combined use of PD-1 in tumor-bearing model mouse with subcutaneous transplantation of EMT6; assay type: in vivo
# Text: As the test substance, the same substance as in Example 1 was used.
# Changes in tumor volume are shown in FIG. 12 (mean value) and FIGS. 13 to 20 (on the basis of an individual). […] In Table 5 and Table 6, “Number of test subjects in complete remission” means that the tumor volume was zero.
# [2] = system: intratumoral immune cells (CD8-positive T cells, M1 and M2 macrophages) of EMT6 tumors; assay: Changes in immune cell composition in tumor in tumor-bearing model mouse with subcutaneous transplantation of EMT6 (flow cytometry); assay type: in vivo; settings: tumors excised Days 16 and 17 after start; Gem 240 mg/kg or Lipo 4 mg/kg 3 times; CTLA-4 10 mg/kg or PBS 5 times
# Text: It is said that a high percentage of CD8-positive T cells in the tumor and a high ratio of M1 macrophages compared to M2 macrophages result in an antitumor environment (reference: J Clin Invest. 2012; 122(3); 787-95).
# Tumors were excised on Days 16 and 17 after the start of administration and used for analysis of intratumoral immune cells.
# The excised tumor was made into a cell-dispersed state using Tumor Dissociation Kit, mouse (catalog number 130-096-730, manufactured by Miltenyi Biotec GmbH), and intratumoral immune cells were isolated using CD45 (TIL) MicroBeads (catalog number 130-110-618, manufactured by Miltenyi Biotec GmbH). Dead cells were stained using LIVE/DEAD (trademark) Fixable Yellow Dead Cell Stain Kit (catalog number L34968, manufactured by Invitrogen Corporation), and various immune cell markers were stained using the following fluorescently labeled antibodies. […] The samples were analyzed using a flow cytometer (Attune NxT, manufactured by Invitrogen Corporation). CD8-positive T cells (CD3-positive, CD8-positive), M1 macrophages (CD11b-positive, F4/80-positive, MHC Class II-positive, CD206-negative), and M2 macrophages (CD11b-positive, F4/80-positive, MHC Class II-negative, CD206-positive) were identified, and the percentage of each cell group was calculated.
# EMT6 tumor cells [3] = assay: Drug efficacy test with combined use of anti-CTLA-4 antibody in tumor-bearing model mouse with subcutaneous transplantation of EMT6
# Method: The anti-CTLA-4 antibody (hereinafter, also referred to as CTLA-4), Gem, and the liposome composition according to the embodiment of the present invention were used as test substances. […] The liposome composition according to the embodiment of the present invention was diluted with 5% Glu prior to use.
# 1.7×10^6 EMT6 cells, which are a mouse breast cancer cell line, were subcutaneously transplanted into the flank of female Balb/c mice to form subcutaneous tumors. Using the tumor volume as an index, inhibitory effects of combined administration of CTLA-4 and Gem and combined administration of CTLA-4 and the liposome composition according to the embodiment of the present invention on subcutaneous tumors were evaluated.
# CTLA-4 and a solvent therefor (PBS) were intraperitoneally administered twice a week for a total of 3 weeks, and Gem, the liposome composition according to the embodiment of the present invention, and a solvent therefor (5% Glu) were administered once a week by tail vein administration for a total of 3 weeks.
# After the 3-week administration was completed, the drug was discontinued, and the tumor volume measurement was continued for 4 weeks. Test subjects with a tumor volume of more than 10% of body weight were euthanized during the test, and drug efficacy analysis was carried out based on the survival rate (tumor-free survival %).
# Group configuration was set to a combination of 5% Glu and PBS for Group 1, a combination of 5% Glu and CTLA-4 (10 mg/kg) for Group 2, a combination of Gem (240 mg/kg) and PBS for Group 3, a combination of Gem (240 mg/kg) and CTLA-4 (10 mg/kg) for Group 4, a combination of the liposome composition according to the embodiment of the present invention (1 mg/kg) and PBS for Group 5, a combination of the liposome composition according to the embodiment of the present invention (1 mg/kg) and CTLA-4 (10 mg/kg) for Group 6, a combination of the liposome composition according to the embodiment of the present invention (4 mg/kg) and PBS for Group 7, and a combination of the liposome composition according to the embodiment of the present invention (4 mg/kg) and CTLA-4 (10 mg/kg) for Group 8.
# (§1) In addition, Lipo (1) and Lipo (4) mean that the liposome composition according to the embodiment of the present invention was administered to a subject at a dose of 1 mg/kg and a dose of 4 mg/kg, respectively.
# The survival rate (tumor-free survival %) in a case where a test subject with a tumor volume of more than 10% of body weight was euthanized was calculated, and the results of a survival curve by the Kaplan-Meier method are shown in FIG. 29. […] As a statistical analysis of an effect of prolonging the survival time, a log-rank test was carried out, and a p value of less than 5% between the groups was determined to have a statistically significant difference. Graghpad Prism version 5.03 was used for the calculation of median survival calculated from the survival curve by Kaplan-Meier method and the statistical analysis.
# EMT6 tumor cells [4] = assay: Drug efficacy test with combined use of PD-L1 in tumor-bearing model mouse with subcutaneous transplantation of EMT6
# Text: An anti-PD-L1 antibody (hereinafter, also referred to as PD-L1), gemcitabine (hereinafter, also referred to as Gem), and gemcitabine-containing liposome composition (hereinafter, also referred to as liposome composition according to the embodiment of the present invention) were used as test substances. Gemcitabine hydrochloride (manufactured by Teva Pharmaceutical Industries Ltd.) dissolved in physiological saline was used as Gem. The liposome composition according to the embodiment of the present invention was diluted with a 5% glucose solution for injection (hereinafter, also referred to as 5% Glu; 0.05 g/mL) prior to use.
# 3×10^6 EMT6 cells, which are a mouse breast cancer cell line, were subcutaneously transplanted into the flank of female Balb mice to form subcutaneous tumors. Using the tumor volume as an index, inhibitory effects of combined administration of PD-L1 and Gem and combined administration of PD-L1 and the liposome composition according to the embodiment of the present invention on subcutaneous tumors were evaluated.
# PD-L1 and an isotype control antibody thereof (hereinafter, also referred to as Iso antibody) were intraperitoneally administered twice a week for a total of 3 weeks, and Gem, the liposome composition according to the embodiment of the present invention, and a solvent therefor (5% Glu) were administered once a week by tail vein administration for a total of 3 weeks.
# After the 3-week administration was completed, the drug was discontinued, and the tumor volume measurement was continued for 2 weeks. Test subjects with a tumor volume of more than 10% of body weight were euthanized during the test, and drug efficacy analysis was carried out based on the survival rate (tumor-free survival %).
# Group configuration was set to a combination of 5% Glu and Iso antibody (10 mg/kg) for Group 1, a combination of 5% Glu and PD-L1 (10 mg/kg) for Group 2, a combination of Gem (240 mg/kg) and Iso antibody (10 mg/kg) for Group 3, a combination of Gem (240 mg/kg) and PD-L1 (10 mg/kg) for Group 4, a combination of the liposome composition according to the embodiment of the present invention (1 mg/kg) and Iso antibody (10 mg/kg) for Group 5, a combination of the liposome composition according to the embodiment of the present invention (1 mg/kg) and PD-L1 (10 mg/kg) for Group 6, a combination of the liposome composition according to the embodiment of the present invention (4 mg/kg) and Iso antibody (10 mg/kg) for Group 7, and a combination of the liposome composition according to the embodiment of the present invention (4 mg/kg) and PD-L1 (10 mg/kg) for Group 8.
# as §1
# As a statistical analysis of an effect of prolonging the survival time, a log-rank test was carried out, and a p value of less than 5% between the groups was determined to have a statistically significant difference.
# [5] = Gem 240 mg/kg or Lipo 1 mg/kg, CTLA-4 10 mg/kg or PBS
smiles,measurement,setting,value
"Nc1ccn([C@@H]2O[C@H](CO)[C@@H](O)C2(F)F)c(=O)n1 [Gem, (+)-2′-deoxy-2′,2′-difluorocytidine]",tumor growth inhibitory effect (in words),"EMT6 tumor cells [1]; Gem 240 mg/kg or Lipo 2 mg/kg, PD-1 10 mg/kg or PBS",tumor growth could not be stopped
same,Complete remission rate (%),"EMT6 tumor cells [1]; by day 41, Gem 240 mg/kg or Lipo 2 mg/kg, PD-1 10 mg/kg or PBS",0%
same,Number of test subjects in complete remission,"EMT6 tumor cells [1]; by post-transplantation day 41, 8 per group, Gem 240 mg/kg or Lipo 2 mg/kg once/3W tail, PD-1 10 mg/kg or PBS twice/3W i.p.",0
same,Tumor volume mean value (mm^3),"EMT6 tumor cells [1]; day 6 after transplantation, Gem 240 mg/kg or Lipo 2 mg/kg, PD-1 10 mg/kg or PBS",432 mm^3
same,Tumor volume mean value (mm^3),"EMT6 tumor cells [1]; day 9 after transplantation, Gem 240 mg/kg or Lipo 2 mg/kg, PD-1 10 mg/kg or PBS",473 mm^3
same,Tumor volume mean value (mm^3),"EMT6 tumor cells [1]; day 13 after transplantation, Gem 240 mg/kg or Lipo 2 mg/kg, PD-1 10 mg/kg or PBS",1129 mm^3
same,Tumor volume mean value (mm^3),"EMT6 tumor cells [1]; day 16 after transplantation, Gem 240 mg/kg or Lipo 2 mg/kg, PD-1 10 mg/kg or PBS",1228 mm^3
same,Tumor volume mean value (mm^3),"EMT6 tumor cells [1]; day 20 after transplantation, Gem 240 mg/kg or Lipo 2 mg/kg, PD-1 10 mg/kg or PBS",2265 mm^3
same,Tumor volume mean value (mm^3),"EMT6 tumor cells [1]; day 23 after transplantation, Gem 240 mg/kg or Lipo 2 mg/kg, PD-1 10 mg/kg or PBS",3521 mm^3
same,animals subjected to euthanasia by the day of test termination,"EMT6 tumor cells [1]; post-transplantation day 41, Gem 240 mg/kg or Lipo 2 mg/kg, PD-1 10 mg/kg or PBS",all animals
same,percentage of CD8-positive T cells in the tumor (in words),[2],not changed
same,Median survival Percentage (control group / comparative group),EMT6 tumor cells [3]; [5],1.40
same,tumor growth inhibitory effect (in words),EMT6 tumor cells [3]; [5],tumor growth could not be stopped
same,Median survival,"EMT6 tumor cells [3]; Kaplan-Meier, euthanasia at tumor volume >10% of body weight, Gem 240 mg/kg or Lipo 1 mg/kg, CTLA-4 10 mg/kg or PBS",29.5
same,Complete remission rate (%),"EMT6 tumor cells [3]; by day 52, Gem 240 mg/kg or Lipo 1 mg/kg, CTLA-4 10 mg/kg or PBS",0%
same,Number of test subjects in complete remission,"EMT6 tumor cells [3]; by post-transplantation day 52, 8 per group, Gem 240 mg/kg or Lipo 1 mg/kg once/3W tail, CTLA-4 10 mg/kg or PBS twice/3W i.p.",0
same,test subjects subjected to euthanasia by the day of test termination,"EMT6 tumor cells [3]; post-transplantation day 52, out of 8, Gem 240 mg/kg or Lipo 1 mg/kg, CTLA-4 10 mg/kg or PBS",All test subjects
same,Log-rank Test Determination,"EMT6 tumor cells [3]; single agents vs 5% Glu + PBS, combinations vs same drug + PBS, Gem 240 mg/kg or Lipo 1 mg/kg, CTLA-4 10 mg/kg",b (“b” indicates p<0.001)
same,effect of prolonging the survival time (in words),"EMT6 tumor cells [3]; single agents vs Group 1, combinations vs same drug + PBS, Gem 240 mg/kg or Lipo 1 mg/kg, CTLA-4 10 mg/kg",statistically significant effect
same,tumor growth inhibitory effect (in words),"EMT6 tumor cells [4]; Gem 240 mg/kg or Lipo 1 mg/kg, PD-L1 or Iso antibody 10 mg/kg",tumor growth could not be stopped
same,Median survival,"EMT6 tumor cells [4]; Kaplan-Meier, euthanasia at tumor volume >10% of body weight, Gem 240 mg/kg or Lipo 1 mg/kg, PD-L1 or Iso antibody 10 mg/kg",20
same,Complete remission rate (%),"EMT6 tumor cells [4]; by day 41, Gem 240 mg/kg or Lipo 1 mg/kg, PD-L1 or Iso antibody 10 mg/kg",0%
same,Number of test subjects in complete remission,"EMT6 tumor cells [4]; by post-transplantation day 41, 8 per group, Gem 240 mg/kg or Lipo 1 mg/kg once/3W tail, PD-L1 or Iso antibody 10 mg/kg twice/3W i.p.",0
same,test subjects subjected to euthanasia by the day of test termination,"EMT6 tumor cells [4]; post-transplantation day 41, Gem 240 mg/kg or Lipo 1 mg/kg, PD-L1 or Iso antibody 10 mg/kg",all test subjects
same,effect of prolonging the survival time (in words),"EMT6 tumor cells [4]; single agents vs Group 1, combinations vs same drug + Iso antibody, Gem 240 mg/kg or Lipo 1 mg/kg, PD-L1 10 mg/kg",No significant prolongation
